From patent EP4509511A1, “SUBSTITUTED SPIRO-ISOXAZOLINYL LACTAMS, SALTS THEREOF AND THEIR USE AS HERBICIDALLY ACTIVE SUBSTANCES” (Bayer Aktiengesellschaft, priority 2023, dated 2025) come the findings set out here.

Each structure is given as a SMILES string.

In one assay the test system is ABUTH. Briefly: Herbicidal post-emergence action - Part II. The format is in vivo, Abutilon theophrasti. The text has this: (§1) Seeds of mono- and dicotyledonous weed plants and crop plants were sown, in plastic or organic planting pots, in sandy loam, covered with soil and grown in a greenhouse under controlled growth conditions. 2 to 3 weeks after sowing, the test plants were sprayed in the single-leaf stage. The compounds according to the invention, formulated in form of wettable powders (WP) or as emulsifiable concentrates (EC), were sprayed onto the green plant parts as aqueous suspension or emulsion, with the addition of 0.5% of an additive, at an application rate of 600 1 of water/ha (converted). The test plants were placed in the greenhouse for ca. 3 weeks under optimum growth conditions, and then the effect of the preparations was assessed visually in comparison with untreated controls (herbicidal effect in percent (%): 100% effect = plants have died off, 0% effect = as control plants). Tables E1 to E10 below show the effects of selected compounds of the general formula (I) according to table 1 on various harmful plants and an application rate corresponding to 320 g/ha or below obtained by the experimental procedure mentioned above. Table E1a: post-emergence activity at 5g/ha against ABUTH in %

The next assay relates to AMARE. Briefly: Herbicidal post-emergence action - Part II. The format is in vivo, Amaranthus retroflexus.
Description: as §1

For a further assay, the system named is MATIN. Nature of the assay: Herbicidal post-emergence action - Part II. It counts as in vivo, Matricaria inodora.
Description: as §1

In another assay the test system is PHBPU. Briefly: Herbicidal post-emergence action - Part II. It counts as in vivo, Pharbitis purpurea.
Description: as §1

A further assay has as its system POLCO. Briefly: Herbicidal post-emergence action - Part II. The format is in vivo, Polygonum convolvulus. The settings on record: 20 g/ha; Table E6.
Description: as §1

A further assay has as its system SETVI. Nature of the assay: Herbicidal post-emergence action - Part II. The format is in vivo, Setaria viridis.
Description: as §1

Another assay deals with VERPE. Nature of the assay: Herbicidal post-emergence action - Part II. The format is in vivo, Veronica persica.
Description: as §1

The test system of a further assay is VIOTR. Briefly: Herbicidal post-emergence action - Part II. The format is in vivo, Viola tricolor.
Description: as §1

The next assay concerns ZEAMX. Briefly: Post-emergence effects on crop plants. It counts as in vivo, Zea mays. The conditions noted are these: crop plant.
Description: as §1, with “F1” for “E1”, “F5” for “E10”, “crop” for “harmful”, “[…]:” for “E1a:”, “ZEAMX” for “ABUTH”

The next assay relates to TRZAS. Nature of the assay: Post-emergence effects on crop plants. The conditions noted are these: crop plant. The format is in vivo, Triticum aestivum.
Description: as §1, with “F1” for “E1”, “F5” for “E10”, “crop” for “harmful”, “[…]:” for “E1a:”, “ZEAMX” for “ABUTH”

The next assay relates to GLXMA. Nature of the assay: Post-emergence effects on crop plants. It counts as in vivo, Glycine max. The settings on record: crop plant.
Description: as §1, with “F1” for “E1”, “F5” for “E10”, “crop” for “harmful”, “[…]:” for “E1a:”, “ZEAMX” for “ABUTH”

Consider `Cn1c(C(F)(F)F)cc(=O)n(-c2cc(C3=NOC4(CCCN(Cc5ccccc5F)C4=O)C3)c(Cl)cc2F)c1=O` (racemic) [Compound I-7], for which the “post-emergence activity against ABUTH” value in the assay with ABUTH (5 g/ha, Table E1a) came to 100%; in the assay with ABUTH (20 g/ha, Table E1b), 100%. Besides, the “post-emergence activity against AMARE” value in the assay with AMARE (5 g/ha, Table E2a) stood at 100%; in the assay on AMARE (20 g/ha, Table E2b), 100%. In addition, the “post-emergence activity against MATIN” value in the assay on MATIN (5 g/ha, Table E4a) is 80%; with MATIN (20 g/ha, Table E4b), 80%. The “post-emergence activity against PHBPU” value in the assay with PHBPU (5 g/ha, Table E5a) was 100%; in the assay on PHBPU (20 g/ha, Table E5b), 100%. For the same molecule, the “post-emergence activity against POLCO” value in the assay on POLCO came out at 100%. Further, the “post-emergence activity against SETVI” value with SETVI (20 g/ha, Table E7b) amounted to 100%. The “post-emergence activity against VERPE” value is 100% with VERPE (5 g/ha, Table E8a) and 100% with VERPE (20 g/ha, Table E8b). The “post-emergence activity against VIOTR” value in the assay on VIOTR (5 g/ha, Table E9a) is on record as 100%; in the assay with VIOTR (20 g/ha, Table E9b), 100%. Also, the “post-emergence activity against ZEAMX” value in the assay with ZEAMX (5 g/ha, Table F1a) is reported as 20%. Moreover, the “post-emergence activity against TRZAS” value in the assay with TRZAS (5 g/ha, Table F2a) is 10%; in the assay on TRZAS (20 g/ha, Table F2b), 20%.
In the case of `Cn1c(C(F)(F)F)cc(=O)n(-c2cc(C3=NOC4(CCN(Cc5c(F)cccc5F)C4=O)C3)c(Cl)cc2F)c1=O` (racemic) [Compound I-29], the “post-emergence activity against ABUTH” value in the assay with ABUTH (5 g/ha, Table E1a) stood at 100%; with ABUTH (20 g/ha, Table E1b), 100%. The “post-emergence activity against AMARE” value is on record as 100% in the assay with AMARE (5 g/ha, Table E2a) and 100% in the assay on AMARE (20 g/ha, Table E2b). In the assay with MATIN (20 g/ha, Table E4b), the “post-emergence activity against MATIN” value worked out at 100%. In addition, the “post-emergence activity against PHBPU” value in the assay with PHBPU (20 g/ha, Table E5b) is reported as 100%. The “post-emergence activity against POLCO” value with POLCO is given as 100%. In addition, the “post-emergence activity against SETVI” value in the assay on SETVI (5 g/ha, Table E7a) is 80%; with SETVI (20 g/ha, Table E7b) it was 80%. Besides, the “post-emergence activity against VERPE” value is given as 100% with VERPE (5 g/ha, Table E8a) and 100% with VERPE (20 g/ha, Table E8b). Further, the “post-emergence activity against VIOTR” value in the assay on VIOTR (5 g/ha, Table E9a) is reported as 100%; in the assay with VIOTR (20 g/ha, Table E9b), 100%. The “post-emergence activity against ZEAMX” value with ZEAMX (5 g/ha, Table F1a) is 20%. Moreover, the “post-emergence activity against TRZAS” value in the assay on TRZAS (5 g/ha, Table F2a) amounted to 20%; in the assay on TRZAS (20 g/ha, Table F2b) it was 20%. For the same molecule, the “post-emergence activity against GLXMA” value in the assay with GLXMA (5 g/ha, Table F4a) worked out at 10%; in the assay with GLXMA (20 g/ha, Table F4b), 20%.
On to `CN1CCCC2(CC(c3cc(-n4c(=O)cc(C(F)(F)F)n(C)c4=O)c(F)cc3Cl)=NO2)C1=O` (racemic) [Compound I-56], for which the “post-emergence activity against ABUTH” value was found to be 100% in the assay with ABUTH (5 g/ha, Table E1a) and 100% in the assay on ABUTH (20 g/ha, Table E1b). Moreover, the “post-emergence activity against AMARE” value with AMARE (5 g/ha, Table E2a) stood at 100%; in the assay with AMARE (20 g/ha, Table E2b), 100%. Also, the “post-emergence activity against MATIN” value with MATIN (20 g/ha, Table E4b) was 100%. Moreover, the “post-emergence activity against PHBPU” value turned out to be 90% in the assay on PHBPU (5 g/ha, Table E5a) and 100% in the assay on PHBPU (20 g/ha, Table E5b). The “post-emergence activity against POLCO” value in the assay on POLCO stood at 100%. For the same molecule, the “post-emergence activity against SETVI” value in the assay on SETVI (20 g/ha, Table E7b) stood at 90%. Further, the “post-emergence activity against VERPE” value with VERPE (5 g/ha, Table E8a) is 80%; in the assay on VERPE (20 g/ha, Table E8b) it was 100%. Further, the “post-emergence activity against VIOTR” value in the assay on VIOTR (5 g/ha, Table E9a) is recorded as 100%; in the assay with VIOTR (20 g/ha, Table E9b), 100%. Besides, the “post-emergence activity against TRZAS” value in the assay on TRZAS (5 g/ha, Table F2a) stood at 20%; in the assay on TRZAS (20 g/ha, Table F2b) it was 20%.
`COC(=O)CN1CCCC2(CC(c3cc(-n4c(=O)cc(C(F)(F)F)n(C)c4=O)c(F)cc3Cl)=NO2)C1=O` (racemic) [Compound I-57]: the “post-emergence activity against ABUTH” value in the assay with ABUTH (20 g/ha, Table E1b) is reported as 100%. Besides, the “post-emergence activity against AMARE” value in the assay with AMARE (5 g/ha, Table E2a) is listed as 100%; in the assay with AMARE (20 g/ha, Table E2b), 100%. For the same molecule, the “post-emergence activity against MATIN” value in the assay on MATIN (20 g/ha, Table E4b) stood at 100%. Further, the “post-emergence activity against PHBPU” value in the assay on PHBPU (5 g/ha, Table E5a) was 100%; in the assay on PHBPU (20 g/ha, Table E5b) it was 100%. Moreover, the “post-emergence activity against POLCO” value in the assay with POLCO was found to be 100%. Also, in the assay with VERPE (20 g/ha, Table E8b), the “post-emergence activity against VERPE” value is listed as 100%. Moreover, the “post-emergence activity against VIOTR” value in the assay with VIOTR (20 g/ha, Table E9b) is reported as 100%. In addition, the “post-emergence activity against ZEAMX” value in the assay on ZEAMX (5 g/ha, Table F1a) came to 20%; in the assay on ZEAMX (20 g/ha, Table F1b), 20%. Besides, the “post-emergence activity against TRZAS” value stood at 20% in the assay with TRZAS (5 g/ha, Table F2a) and 20% in the assay with TRZAS (20 g/ha, Table F2b).
As to `Cn1c(C(F)(F)F)cc(=O)n(-c2cc(C3=NOC4(CCNC4=O)C3)c(Cl)cc2F)c1=O` (racemic) [Compound I-71], the “post-emergence activity against ABUTH” value is 80% in the assay with ABUTH (5 g/ha, Table E1a) and 100% in the assay on ABUTH (20 g/ha, Table E1b). Besides, in the assay with AMARE (20 g/ha, Table E2b), the “post-emergence activity against AMARE” value amounted to 100%. The “post-emergence activity against MATIN” value in the assay on MATIN (20 g/ha, Table E4b) is 80%. Besides, in the assay with PHBPU (20 g/ha, Table E5b), the “post-emergence activity against PHBPU” value turned out to be 80%. Moreover, the “post-emergence activity against POLCO” value in the assay with POLCO is given as 80%. For the same molecule, the “post-emergence activity against VERPE” value with VERPE (20 g/ha, Table E8b) is given as 80%. Further, the “post-emergence activity against VIOTR” value was 80% with VIOTR (5 g/ha, Table E9a) and 80% with VIOTR (20 g/ha, Table E9b). Besides, the “post-emergence activity against ZEAMX” value in the assay with ZEAMX (5 g/ha, Table F1a) stood at 20%. Also, in the assay on TRZAS (5 g/ha, Table F2a), the “post-emergence activity against TRZAS” value is 0%.
